Measurements from article PMC11530689, “Anti colorectal cancer activity and in silico studies of novel pyridine nortopsentin analog as cyclin dependent kinase 6 inhibitor” (Scientific Reports, 2024).

Assays:
CDK4 gene expression = assay: Gene expression by quantitative real-time PCR, CDK4; assay type: cell-based, human; settings: IC50 dose, 48 h, normalized to GAPDH, vs control
Experimental: (§1) The cells were seeded in a six-well plate at a concentration of 3 × 10^5 cells/well. After a 24 h incubation, the IC50 dose of active compound 4i was applied to each well for 48 h. The cells were collected and centrifuged at 2500 rpm for 15 min at 4 °C. The total RNA isolation kit (RNeasy extraction kit—QIAGEN) was used to isolate RNA according to the manufacturer’s instructions.
(§2) Gene expression analysis by quantitative real-time PCR. The levels of gene expression of CDK2, CDK4 and CDK6 were determined using iScript One-Step RT-PCR kit with SYBR Green (BIORAD) according to the manufacturer protocol. The sequences of the used primers are illustrated in Table 4. The genes expression was normalized to GAPDH as the housekeeping gene. The protocol used for cDNA synthesis was: 10 min at 50 °C, iScript Reverse transcriptase inactivation: 5 min at 95 °C and PCR cycling and detection (30 to 45 cycles): 10 s at 95 °C and 30 s at 55 °C to 60 °C.

CDK6/Cyclin D3 = CDK6/Cyclin D3 (Homo sapiens, UniProt Q00534); assay: Cyclin dependent kinase enzymatic activity assay (ADP-Glo); assay type: biochemical
Experimental: (§3) ADP-Glo™ Kinase Assay kit (Promega, USA) was used for the enzymatic activity analysis according to the manufacturer’s instructions. In brief, to each well we added 1 μl of inhibitor, 2 μl of each cyclin dependent kinase enzymes, and 2 μl of substrate/ATP mix and incubated at room temperature for 60 min. After that 5 μl of ADP‐Glo™ reagent was added and incubated at room temperature for 40 min. 10 μl of kinase detection reagent was added and incubated at room temperature for 30 min, then the luminescence was measured.

CDK4/Cyclin D3 = CDK4/Cyclin D3 (Homo sapiens, UniProt P11802); assay: as above; assay type: biochemical
Experimental: as §3

CDK2/Cyclin E1 = CDK2/Cyclin E1 (Homo sapiens, UniProt P24941); assay: as above; assay type: biochemical
Experimental: as §3

HCT116 cells = assay: Cell cycle analysis by FACS (PI staining); assay type: cell-based, human; settings: HCT116, treated with IC50 for 48 h, control 41.93%
Experimental: Briefly, HCT116 cells were treated with 4i compound’s IC50 for 48 h. Then, the cells were fixed in cold 70% ethanol solution for 2 h at 4 °C and centrifuged at 800 g for 5 min. The ethanol solution was removed. PBS was used to wash the cells twice. DNA was stained with 1 µg/mL propidium iodide (PI) solution (Sigma-Aldrich, St. Louis, MO, USA), supplemented with 100 µg/mL RNase A (Roche, Basel, Switzerland) for 30 min in the dark at 37 °C. After centrifugation, the cells were suspended in phosphate buffer solution and the fluorescence was measured using flow cytometry by FACSCalibur (BD Biosciences, Mountain View, CA). The data were analyzed using the CellQuest software (BD Biosciences).

HCT-116 cells = assay: MTT assay, IC50 determination; assay type: cell-based; settings: Homo sapiens, colorectal cancer HCT-116 cells, 48 h
Experimental: HCT-116 (colon cancer cell line) was obtained from the American Type Culture Collection (ATCC). The cancer cell line was grown in Dulbecco’s Modified Eagle’s Medium (DMEM) supplemented with 10% fetal bovine serum (FBS), penicillin/streptomycin (100 U/mL and 100 μg/mL, respectively) and 2 mM L-glutamine. The cells were maintained at 37 °C in 5% CO2.
The cytotoxic activity of nortopsintin analogs (4a–4j) was determined by the national cancer institute (NCI, Bethesda, Maryland, USA) against 60 different cancer cell lines at a single concentration of (10^−5 M). For the determination of IC50 value, we used MTT assay kit (Sigma) according to the manufacturer’s protocol. HCT-116 cells were seeded into a 96-well plate at a concentration of 20,000 cells/well. After 24 h, the media was aspirated and replaced with serum-free media containing serial dilutions of the 4i compound. The cells were treated for 48 h in triplicates. […] The percentage of cytotoxicity was calculated using the following equation: % Cytotoxicity = [1 − (AVx/AVNC)] × 100.
Where, AVx denotes the average absorbance of the sample and AVNC denotes the average absorbance of the negative control. The absorbance was measured at 570 nm with reference at 690 nm.

CDK6 gene expression = assay: Gene expression by quantitative real-time PCR, CDK6; assay type: cell-based, human; settings: IC50 dose, 48 h, normalized to GAPDH, vs control
Experimental: as §1, §2

Chain of CDK4/Cyclin D3 (P11802 whole entry): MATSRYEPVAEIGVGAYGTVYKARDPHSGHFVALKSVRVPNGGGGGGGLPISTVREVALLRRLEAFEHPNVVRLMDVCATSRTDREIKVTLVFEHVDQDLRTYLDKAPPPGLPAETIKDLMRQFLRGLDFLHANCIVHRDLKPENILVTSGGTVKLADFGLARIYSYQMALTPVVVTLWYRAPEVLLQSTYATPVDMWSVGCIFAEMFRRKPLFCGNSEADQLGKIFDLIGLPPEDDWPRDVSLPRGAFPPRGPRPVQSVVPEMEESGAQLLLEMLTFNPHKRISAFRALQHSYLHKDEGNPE
Chain of CDK4/Cyclin D3 (P30281 whole entry partner): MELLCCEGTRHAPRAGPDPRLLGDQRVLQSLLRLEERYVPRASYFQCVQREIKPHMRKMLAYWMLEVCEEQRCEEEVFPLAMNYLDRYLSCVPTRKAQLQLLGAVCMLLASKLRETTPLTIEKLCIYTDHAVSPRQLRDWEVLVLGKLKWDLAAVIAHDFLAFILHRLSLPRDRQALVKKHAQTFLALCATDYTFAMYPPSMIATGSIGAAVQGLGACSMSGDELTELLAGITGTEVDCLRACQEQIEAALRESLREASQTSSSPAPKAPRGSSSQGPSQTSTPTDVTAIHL
Chain of CDK6/Cyclin D3 (Q00534 whole entry): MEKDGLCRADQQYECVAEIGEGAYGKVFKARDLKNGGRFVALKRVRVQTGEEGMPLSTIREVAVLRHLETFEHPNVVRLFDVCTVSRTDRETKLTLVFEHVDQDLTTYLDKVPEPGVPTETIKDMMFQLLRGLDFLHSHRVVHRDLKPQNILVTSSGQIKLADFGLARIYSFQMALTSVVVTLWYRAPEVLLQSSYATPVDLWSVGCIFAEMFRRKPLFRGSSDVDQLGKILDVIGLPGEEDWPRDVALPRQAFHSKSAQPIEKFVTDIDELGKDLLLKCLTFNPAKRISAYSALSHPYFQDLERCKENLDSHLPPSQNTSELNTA
Chain of CDK6/Cyclin D3 (P30281 whole entry partner): as the sequence (P30281 whole entry partner) above

SMILES: CN(C)c1ccc(-c2cc(-c3c[nH]c4ccccc34)nc(-c3c[nH]c4ccccc34)c2C#N)cc1 [4i]
- Relative gene expression of CDK4 (CDK4 gene expression): significantly suppress the expression
- IC50 (CDK6/Cyclin D3): 98 nM
- IC50 (CDK4/Cyclin D3): 265 nM
- IC50 (CDK2/Cyclin E1): 658 nM
- cells at G1 phase (%DIP G1) (HCT116 cells): 47.62%
- IC50 (HCT-116 cells): 28.8 nM
- Relative gene expression of CDK6 (CDK6 gene expression): significantly suppress the expression
